Experimental data: PMC8658889, “Seriniquinones as Therapeutic Leads for Treatment of BRAF and NRAS Mutant Melanomas” (Molecules, 2021)

How the values were obtained:
[1] = tested on: MRC-5; experiment: MTT cytotoxicity assay; conditions: Homo sapiens, MRC5, 72 h
[2] = tested on: MM200; experiment: MTT cytotoxicity assay; format: cell-based, Human; conditions: for IC50: Homo sapiens, MM200, 72 h treatment, MTT
From the text: (§1) Human cell lines were used throughout this program. SK-MEL-19 (melanoma BRAF^V600E, NRAS^WT), SK-MEL-28 (melanoma BRAF^V600E, NRAS^WT), SK-MEL-147 (melanoma BRAF^WT, NRAS^Q61R), MRC-5 (fibroblasts), and primary fibroblast (FDH) were kindly provided by Professor Glaucia Santelli (University of São Paulo, Brazil). MCF7 (breast adenocarcinoma, ATCC HTB-22), and HCT-116 (colorectal carcinoma, ATCC 247) cells were obtained from American Type Culture Collection (ATCC) and deposited in the Cell Bank of Rio de Janeiro, Brazil. WM293A (metastatic melanoma BRAF^V600D, NRAS^WT), 501mel (metastatic melanoma BRAF^V600E; NRAS^G12D), and MM200 (melanoma BRAF^V600E, NRAS^WT) were kindly provided by Professor Sharon Prince, University of Cape Town, South Africa. All human melanoma and breast cell lines were cultivated with Dulbecco’s Modified Eagle Medium: Nutrient Mixture F-12 (Thermo Fisher Scientific, San Jose, CA, USA). MM200 and HCT-116 were maintained with Roswell Park Memorial Institute (RPMI) medium (Thermo Fisher Scientific, San Jose, CA, USA). Unless stated otherwise, media was supplemented with 10% fetal bovine serum (FBS) and 1% penicillin-streptomycin (Thermo Fisher Scientific, San Jose, CA, USA). Cells were incubated with 5% CO2 at 37 °C. When required, cells were detached from flask using trypsin-EDTA 0.05% (Thermo Fisher Scientific, San Jose, CA, USA).
(§2) Cytotoxic activity was evaluated by the transformation of 3-(4,5-dimethylthiazol-2-yl)-2,5-diphenyltetrazolium bromide (MTT; Thermo Fisher Scientific, San Jose, CA, USA) into formazan by viable cells. Cells were plated in a 96-well plate (1 × 10^4 cells/well) and, 24 h later, exposed to serial dilutions of the test compounds (from 0.00032 to 5.0 µM) for 24, 48, and 72 h. For each analysis, negative controls received 0.5% DMSO and positive control was delivered by doxorubicin (DOX; 0.05 to 10.0 µM). At the end of the incubation periods, the medium was replaced with fresh medium containing 0.5 mg/mL of MTT and supernatant was removed 3 h later. The plates were dried at 50 °C for 30 min and formazan was solubilized in DMSO (150 µL/well) for the absorbance measure at 570 nm on a plate reader (Thermo Fisher Scientific, San Jose, CA, USA). IC50 values (half-maximal inhibitory concentration) along with 95% CI (confidence intervals) were calculated by non-linear regression using GraphPad Prism 8.0 software (GraphPad Software, Inc., San Diego, CA, USA).

[3] = tested on: MCF7; experiment: MTT cytotoxicity assay; format: cell-based, Human; conditions: for IC50: Homo sapiens, MCF7, 72 h treatment, MTT
From the text: as §1, §2

[4] = tested on: HCT-116; experiment: MTT cytotoxicity assay; format: cell-based, Human; conditions: for IC50: Homo sapiens, HCT-116, 72 h treatment, MTT
From the text: as §1, §2

[5] = tested on: SK-MEL-19; experiment: MTT cytotoxicity assay; format: cell-based, Human; conditions: for IC50: Homo sapiens, SK-MEL19, SK-MEL-19, 72 h treatment, MTT
From the text: as §1, §2

[6] = tested on: 501mel; experiment: MTT cytotoxicity assay; format: cell-based, Human; conditions: for IC50: Homo sapiens, 501mel, 72 h treatment, MTT
From the text: as §1, §2

[7] = tested on: SK-MEL-28; experiment: MTT cytotoxicity assay; format: cell-based, Human; conditions: for IC50: Homo sapiens
From the text: as §1, §2

[8] = tested on: WM293A; experiment: MTT cytotoxicity assay; format: cell-based, Human; conditions: for IC50: Homo sapiens, WM293A, 72 h treatment, MTT
From the text: as §1, §2

[9] = tested on: SK-MEL-147; experiment: MTT cytotoxicity assay; format: cell-based, Human; conditions: for IC50: Homo sapiens
From the text: as §1, §2

[10] = tested on: FDH; experiment: MTT cytotoxicity assay; format: cell-based, Human; conditions: Homo sapiens, Fibroblast, 72 h, FDH primary fibroblasts, 72 h treatment
From the text: as §1, §2

[11] = tested on: melanoma cells; experiment: MTT cytotoxicity assay, melanoma panel; format: cell-based, Human; conditions: SK-Mel cells versus non-tumor cell lines
From the text: as §1, §2

[12] = MRC-5 non-tumor fibroblasts, 72 h treatment, MTT
[13] = MM200 versus FDH, 72-h IC50 ratio
[14] = MM200 versus MRC-5, 72-h IC50 ratio
[15] = MCF7 versus FDH, 72-h IC50 ratio
[16] = MCF7 versus MRC-5, 72-h IC50 ratio
[17] = HCT-116 versus FDH, 72-h IC50 ratio
[18] = HCT-116 versus MRC-5, 72-h IC50 ratio
[19] = SK-MEL-19 versus FDH, 72-h IC50 ratio
[20] = SK-MEL-19 versus MRC-5, 72-h IC50 ratio
[21] = 501mel versus FDH, 72-h IC50 ratio
[22] = 501mel versus MRC-5, 72-h IC50 ratio
[23] = SK-MEL-28, 72 h, SK-MEL-28, 72 h treatment, MTT
[24] = SK-MEL-28 versus FDH, 72-h IC50 ratio
[25] = SK-MEL-28 versus MRC-5, 72-h IC50 ratio
[26] = WM293A versus FDH, 72-h IC50 ratio
[27] = WM293A versus MRC-5, 72-h IC50 ratio
[28] = SK-MEL-147, 72 h, SK-MEL-147, 72 h treatment, MTT
[29] = SK-MEL-147 versus FDH, 72-h IC50 ratio
[30] = SK-MEL-147 versus MRC-5, 72-h IC50 ratio
[31] = SK-MEL-28, SK-MEL-28, 24h treatment, 1h pre-treated with 30 nM bafilomycin A1
[32] = SK-MEL-28, SK-MEL-28, 24h treatment, 1h pre-treated with 20 µM Z-VAD-FMK
[33] = SK-MEL-28, SK-MEL-28, 24h treatment, no pre-treatment (Table S4)
[34] = SK-MEL-147, SK-MEL-147, 24h treatment, 1h pre-treated with 30 nM bafilomycin A1
[35] = SK-MEL-147, SK-MEL-147, 24h treatment, 1h pre-treated with 20 µM Z-VAD-FMK
[36] = SK-MEL-147, SK-MEL-147, 24h treatment, no pre-treatment (Table S4)

Row | SMILES | Selectivity Index (SI) [2, 13] | Selectivity Index (SI) [2, 14] | IC50 [3] | Selectivity Index (SI) [3, 15] | Selectivity Index (SI) [3, 16] | Selectivity Index (SI) [4, 17] | Selectivity Index (SI) [4, 18] | IC50 [4] | IC50 [5] | Selectivity Index (SI) [5, 19] | Selectivity Index (SI) [5, 20] | IC50 [6] | IC50 [7, 23] | Selectivity Index (SI) [7, 24] | Selectivity Index (SI) [7, 25] | IC50 [8] | Selectivity Index (SI) [8, 26] | Selectivity Index (SI) [8, 27] | IC50 [9, 28] | Selectivity Index (SI) [9, 29] | further results
1 | O=C(O)CCc1ccc2c(=O)c3sc4c(=O)c5ccccc5c(=O)c4c3c(=O)c2c1 [SQ3] | 2.4 | 1.0 | 1900 nM | 1.8 | 0.8 | 3.4 | 1.4 | 1020 nM | 110 nM | 31.8 | 13.0 | 200 nM | 240 nM | 14.6 | 6.0 | 1500 nM | 2.3 | 1.0 | 260 nM | 13.5 | IC50 [1, 12]: 1430 nM; IC50 ([2]; 72 h): 1430 nM; Selectivity Index (SI) [6, 21]: 17.5; Selectivity Index (SI) [6, 22]: 7.2; Selectivity Index (SI) [9, 30]: 5.5; IC50 [10]: 3500 nM; selectivity indices to SK-Mel cells in relation to non-tumor cell lines [11]: ≥ twofold
2 | NCCCCCCNC(=O)CCc1ccc2c(=O)c3sc4c(=O)c5ccccc5c(=O)c4c3c(=O)c2c1 [SQ4] | 0.9 | 2.1 | 1000 nM | 1.0 | 2.5 | 1.0 | 2.4 | 1020 nM | 320 nM | 3.2 | 7.7 | > 5000 nM | 190 nM | 5.3 | 12.9 | 1750 nM | 0.6 | 1.4 | 400 nM | 2.5 | IC50 [1, 12]: 2450 nM; IC50 ([2]; 72 h): 1160 nM; Selectivity Index (SI) [9, 30]: 6.1; IC50 [10]: 1010 nM; selectivity indices to SK-Mel cells in relation to non-tumor cell lines [11]: ≥ twofold
3 | COc1cccc2c1C(=O)c1c(O)c3c(c(O)c1C2=O)C[C@@](O)(C(=O)CO)C[C@@H]3O[C@H]1C[C@H](N)[C@H](O)[C@H](C)O1 [DOX, doxorubicin, reference compound] | 7.8 | 0.5 | 560 nM | 1.4 | 0.1 | 5.2 | 0.3 | 150 nM | 390 nM | 2.0 | 0.1 | 260 nM | 1220 nM | 0.6 | 0.04 | 60 nM | 13.0 | 0.9 | 180 nM | 4.3 | IC50 [1]: 50 nM; IC50 [2]: 100 nM; Selectivity Index (SI) [6, 21]: 3.0; Selectivity Index (SI) [6, 22]: 0.2; IC50 ([7]; SK-MEL-28, 24 h, SK-MEL-28, 24h treatment, MTT): 1390 nM; IC50 ([7]; SK-MEL-28, 48 h, SK-MEL-28, 48h treatment, MTT): 2110 nM; IC50 [7, 31]: 330 nM; IC50 [7, 32]: 1150 nM; IC50 [7, 33]: 590 nM; IC50 ([9]; SK-MEL-147, 24 h, SK-MEL-147, 24h treatment, MTT): 790 nM; IC50 ([9]; SK-MEL-147, 48 h, SK-MEL-147, 48h treatment, MTT): 480 nM; IC50 [9, 34]: 2480 nM; IC50 [9, 35]: 1880 nM; IC50 [9, 36]: 800 nM; Selectivity Index (SI) [9, 30]: 0.3; IC50 [10]: 780 nM
4 | CO[C@H]1C[C@@H]2CC[C@@H](C)[C@@](O)(O2)C(=O)C(=O)N2CCCC[C@H]2C(=O)O[C@H]([C@H](C)C[C@@H]2CC[C@@H](O)[C@H](OC)C2)CC(=O)[C@H](C)/C=C(\C)[C@@H](O)[C@@H](OC)C(=O)[C@H](C)C[C@H](C)/C=C/C=C/C=C/1C [RAPAMYCIN, rapamycin, reference compound] |  |  |  |  |  |  |  |  |  |  |  |  |  |  |  |  |  |  |  |  | IC50 [7, 31]: 15600 nM; IC50 [7, 32]: 31800 nM; IC50 [7, 33]: 17800 nM; IC50 [9, 34]: 39100 nM; IC50 [9, 35]: 22800 nM; IC50 [9, 36]: 17500 nM
5 | N[C@H]1CCN(C(=O)CCc2ccc3c(=O)c4sc5c(=O)c6ccccc6c(=O)c5c4c(=O)c3c2)C1 [SQ5] | 3.1 | 1.9 | 490 nM | 1.9 | 1.1 | 4.2 | 2.5 | 220 nM | 40 nM | 23.3 | 14.0 | 1710 nM | 150 nM | 6.2 | 3.7 | 1650 nM | 0.6 | 0.3 | 70 nM | 13.3 | IC50 [1, 12]: 560 nM; IC50 ([2]; 72 h): 300 nM; Selectivity Index (SI) [6, 21]: 0.5; Selectivity Index (SI) [6, 22]: 0.3; Selectivity Index (SI) [9, 30]: 8.0; IC50 [10]: 930 nM; selectivity indices to SK-Mel cells in relation to non-tumor cell lines [11]: ≥ twofold
